Results: patent publication US10865176B2, “Small molecule modulators of microRNA-34a” (The Chinese University of Hong Kong, priority 2012, dated 2020)
Marks after values point to notes of the source that are not given here.

Key:
miR-34a [1] = assay: qRT-PCR of primary and mature miR-34a in HCC cells; assay type: cell-based, human; conditions: HCC cells (HepG2, FIG. 4B)
Experimental: (§1) Total RNA from cell cultures and HCC xenograft tumors were extracted using Trizol (Invitrogen) according to manufacturer's protocols. Total RNAs were dissolved into nuclease-free ddH2O. For protein extraction, cells and HCC xenograft tumors were lysed in 1×RIPA buffer with 1 mM PMSF and 1× complete protease inhibitor cocktail (Roche, Indianapolis, Ind.). Both RNA and protein were stored at −80° C.
(§2) Total RNA was reversely transcribed into cDNAs using High Capacity cDNA Reverse Transcription Kit (Applied Biosystems, Foster city, CA, USA) and nude RT kit (Invitrogen) individually. qRT-PCR was performed using SYBR Green PCR master mix (TaKaRa, Dalian, China). GAPDH was used as an endogenous control. For measuring miR-34a expression level, qPCR was performed by using SYBR Green PCR master mixture (Invitrogen) and U6 was used as the internal control. All samples were normalized to internal controls and fold changes were calculated by relative quantification (2^−ΔΔct).

miR-34a [2] = assay: miR-34a reporter luciferase assay in Huh7 cells; assay type: cell-based, human
Experimental: The pMIR-REPORT™ luciferase plasmid (1 μg; Ambion) was sequentially double digested with Sac I and Hind III (10 units each, 50 μL reaction; NEB) and was gel purified. Double stranded insert DNA encoding the miR-34a binding site was synthesized through standard oligonucleotide synthesis methods. The sequences used were Forward: 5′z […]-3′ (SEQ ID NO:1) and Reverse: 5′: […]-3′ (SEQ ID NO:2). The insert was hybridized (heated to 95° C., and cooled to 4° C. over 30 min, then held at 4° C. for 60 min) and ligated with T4 ligase (200 units, 10 μL reaction, 1:10 vector/insert ratio; NEB) into the digested pMIR-REPORT™ luciferase vector. Positive colonies were selected by PCR colony screens, and the construction of the pMIR-REPORT™-miR-34a vector was confirmed by double enzyme digestion with NheI, MluI and Nhe I, Hind III (NEB). The luciferase reporter vector containing the miR-34a promoter was kindly provided by Prof. Mendell J T from Johns Hopkins University (21).
Huh7 cells were seeded into 96-well plates 12 h prior to transfection. MiR-34a reporter and the control vector were respectively co-transfected with Renilla luciferase pRL-SV40 into Huh7 cells. All transfections were performed in triplicate. The cells were incubated at 37° C. for 4 h followed by the replacement of transfection media with standard DMEM growth media with 10 μM of the natural products library (NPL) compounds (Tim Tec; 0.1% DMSO final concentration). This library contains 640 compounds including natural products and their derivatives. After 48 h of incubation, the media was removed and cells were lysed and the luciferase signals were measured by luciferase assay as described below.
MiR-34a reporter, the luciferase reporter vector containing miR-34a promoter and the control vectors were transfected into HCC cells 12 h before compound treatment. The Renilla luciferase vector pRL-SV40 was co-transfected as an internal control. HCC cells were then treated with compound for 48-72 h. The luciferase activity was measured by Dual Luciferase Reporter Assay (Promega) with a Wallac VICTOR^3V luminometer. The ratio of firefly luciferase to Renilla expression was calculated for each of the triplicates.

HepG2 xenografted tumor = assay: HepG2 xenografted nude mice model, tumor growth; assay type: in vivo; conditions: 50 mg/kg, gavage once every two days
Experimental: (§3) Tumor volume was calculated as [(Length×Width×Height)[…]]. Treatment was continued for 24 d. Finally, all mice were sacrificed and tumors were excised. Tumor weight was recorded.

miR-34a [3] = assay: qRT-PCR of pri-miR-34a and miR-34a in xenografted tumors; assay type: in vivo, nude mice; conditions: excised tumors after 24 d gavage
Experimental: as §1, §2, §3

Cyclin D1 and Bcl-2 = assay: qRT-PCR of Cyclin D1 and Bcl-2 in xenografted tumors; assay type: in vivo, nude mice; conditions: excised tumors after 24 d gavage
Experimental: as §1, §2, §3

[4] = HepG2 xenograft model, survival, body weight and side effects
Experimental: 5×10^6 HepG2 cells were suspended in 100 μl serum-free medium and subcutaneously (s.c.) inoculated into the dorsal flanks of nude mice. When tumors reached 5-10 mm in diameter, mice were randomly divided into 4 groups (n=5). […] Vehicle alone and Sorafenib were used as the negative and positive control respectively. Tumor volumes and body weight were measured once every two days. Tumor volume was calculated as [(Length×Width×Height)±2]. Treatment was continued for 24 d. Finally, all mice were sacrificed and tumors were excised. Tumor weight was recorded.

In the case of O=c1[nH]cc(F)c(=O)[nH]1 [5-Fluorouracil, reference compound], the “miR-34a expression after chemotherapeutic drugs” value (“miR-34a expression” for short) (miR-34a [1]) is reported as “no effect”.
With COc1ccc(-c2cc(=O)c3c(O)cc(O)cc3o2)cc1 [Acacetin, 5,7-dihydroxy-4′-methoxyflavone] the “function as miR-34a activator, re-assayed in triplicate with miR-34a reporter system” value (miR-34a [2]) was “functions as the miR-34a activators are confirmed”.
With CNC(=O)c1cc(Oc2ccc(NC(=O)Nc3ccc(Cl)c(C(F)(F)F)c3)cc2)ccn1 [Sorafenib, reference compound] the “miR-34a expression” value (miR-34a [1]) was “no effect”, the “Tumor growth inhibition (%)” value (HepG2 xenografted tumor; 24 d) was 84.22% and the “Tumor weight (g)” value (HepG2 xenografted tumor; day 24, mean (95% CI)) was 0.186 (95% CI = 0.14 − 0.23)** g. The “pri-miR-34a and miR-34a levels in xenografted tumors” value (miR-34a [3]) was “no changes”, the “Cyclin D1 and Bcl-2 expression in xenografted tumors” value (Cyclin D1 and Bcl-2) was “no changes” and the “Body weight (g) initial” value ([4]; 50 mg/kg group, initial, mean (95% CI)) was 20.00(95% CI = 18.76 − 21.24)/ g. For the same compound, the “Body weight (g) end” value ([4]; 50 mg/kg, end of 24 d treatment, mean (95% CI)) was 24.00(95% CI = 21.22 − 26.78) g and the “Mice survival (n) initial/end” value ([4]; 50 mg/kg, gavage once every two days, 24 d) was 5/5.
For N.N.[Cl][Pt][Cl] [Cisplatin, reference compound], the “miR-34a expression” value (miR-34a [1]) was “no effect”.
With COc1cccc2c1C(=O)c1c(O)c3c(c(O)c1C2=O)C[C@@](O)(C(=O)CO)C[C@@H]3O[C@H]1C[C@H](N)[C@H](O)[C@H](C)O1 [Doxorubicin, reference compound] the “miR-34a expression” value (miR-34a [1]) was “no effect”.
